In patent US8591892B2, “FTY720 increases CD74 expression and sensitizes cancer cells to anti-CD74 antibody-mediated cell death” (The Ohio State University, priority 2011, dated 2013):

Tests used:
[1] = system: Jeko cells engrafted in SCID mice; test: Preclinical model of human MCL in SCID mice, survival; type: in vivo, mouse; settings: n=10/group, from day 15; FTY720 5 mg/kg i.p. daily 2 weeks; antibodies 15 mg/kg i.p. every three days
Experimental: Evaluation of in vivo therapeutic activity of FTY720 and milatuzumab in the preclinical MCL model. SCID mice were injected i.v. with 40×10^6 JeKo cells and observed daily for signs of tumor burden.
Six to eight-week old female SCID mice (cb17 scid/scid) were purchased from Taconic Farms (Hudson, N.Y.) and maintained in pathogen-free, isolation cages. All animals were depleted of murine NK cells with intra-peritoneal (i.p.) injections of 0.2 mg of rat anti-mouse interleukin-2 receptor β monoclonal antibody (TMβ1) 1 day prior to engraftment with human tumor cell lines and then every week. Forty-eight hours post intravenous injection of 40×10^6 Jeko cells via tail vein, 50 mice were randomly distributed into 10 cages. Animals in groups of ten were treated starting at day 15 after engraftment. […] The third group was treated with FTY720 (5 mg/kg) every day for 2 weeks via i.p. The fourth group received milatuzumab (15 mg/kg) every three days, via i.p. injection. The fifth group received the combination of FTY720 and milatuzumab. Animals were monitored daily for signs of tumor burden, including hind limb paralysis, respiratory distress, weight loss, ruffled coat, and distended abdomen. Body weight was measured weekly for the first 3 weeks and then daily. […]

human AML cell lines = test: Proliferation assays, milatuzumab with/without IFN-γ; type: cell-based
Experimental: CD74 expression in bone marrow biopsy (BMB) specimens from non-M3 AML patients was evaluated by immunohistochemistry and, for 3 human AML cell lines, by flow cytometry, with/without permeabilization and with/without IFN-γ (40 and 200 U/mL). These cell lines were also tested in proliferation assays for responses to milatuzumab, with/without IFN-γ. In 13/14 BMB specimens, there was moderate to strong CD74 expression by leukemic blasts, which was mostly intracellular, usually with a perinuclear distribution (data not shown). […] IFN-γ induced intracellular CD74 in all 3 lines (from 85%-868%) (not shown).

Aspc-1 = test: Flow cytometry of CD74, HLA-DR, CEACAM5 with directly labeled MAbs, with and without IFN-γ; type: cell-based
Experimental: (§1) Expression of CD74, HLA-DR, and carcinoembryonic antigen (CEACAM5) was determined in untreated cells and cells exposed to 200 U of IFN-γ for 48 h by flow cytometry. Cells were stained with directly labeled MAbs in comparison to a directly labeled human IgG control. Antibodies were labeled using ALEXA FLUOR® 488 (Invitrogen, Carlsbad, Calif.). For determination of cytoplasmic antigen expression, cells were permeabilized prior to staining using the BD CYTOFIX/CYTOPERM™ kit (BD Biosciences, San Jose, Calif.).

BxPC-3 = test: as above; type: cell-based
Experimental: as §1

CAG = test: as above; type: cell-based
Experimental: as §1

Capan-1 = test: as above; type: cell-based
Experimental: as §1

FSCCL = test: as above; type: cell-based
Experimental: as §1

HT29 = test: as above; type: cell-based
Experimental: as §1

KMS11 = test: as above; type: cell-based
Experimental: as §1

LS174T = test: as above; type: cell-based
Experimental: as §1

Lovo = test: as above; type: cell-based
Experimental: as §1

Moser = test: as above; type: cell-based
Experimental: as §1

Panc-1 = test: as above; type: cell-based
Experimental: as §1

RL = test: as above; type: cell-based
Experimental: as §1

TU118 = test: as above; type: cell-based
Experimental: as §1

U118 = test: as above; type: cell-based
Experimental: as §1

U87 = test: as above; type: cell-based
Experimental: as §1

WSU-FSCCL NHL cells = test: Cytotoxicity of milatuzumab with GAH crosslinking, with and without IFN-γ; type: cell-based; settings: in vitro
Experimental: (§2) We examined whether the ability of anti-CD74 MAbs to kill cancer cells can be increased by using IFN-γ as an inducer of antigen expression. Using a panel of diverse cancer cell lines (including NHL, MM, GBM, and pancreatic and colonic carcinomas), we examined IFN-γ-induced changes in surface and cytoplasmic CD74 expression. Sensitivity of the malignant cells to milatuzumab was assessed with and without IFN-γ by cytotoxicity assays.
(§3) The cytotoxicity of anti-CD74 antibodies was examined in the presence or absence of IFN-γ (not shown). As previously observed, in vitro cytotoxicity of milatuzumab required crosslinking (Stein, et al., Blood, 104: 3705-11, 2004). Goat anti-human IgG (GAH) was used for crosslinking in these experiments.

[2] = system: Capan-1, Aspc-1, LoVo, HT-29, U87, U118 cells; test: Cytotoxicity of milatuzumab with and without crosslinking agent or IFN-γ; type: cell-based; settings: regardless of crosslinking agent or IFN-γ
Experimental: as §2, §3

[3] = multiple myeloma patients, 1.5 mg/kg twice weekly for 4 weeks; cited from earlier work
[4] = single agents, same dosage and delivery schedule; cited from earlier work

Substance: milatuzumab: fully humanized monoclonal antibody specific for CD74
- median survival [1]: 33.5 days
- growth inhibition (human AML cell lines; first responding AML line, with IFN-γ): 44.8%
- growth inhibition (human AML cell lines; first responding AML line, without IFN-γ): 23.7%
- growth inhibition (human AML cell lines; second responding AML line, with IFN-γ): 30.9%
- growth inhibition (human AML cell lines; second responding AML line, without IFN-γ): −3.9%
- % change of cell surface expression with IFNγ (Aspc-1; Aspc-1): 121.3%
- % change of cytoplasmic expression with IFNγ (Aspc-1; Aspc-1): 1451.5%
- Cell surface expression (staining with directly labeled MAb) (Aspc-1; Aspc-1 + IFNγ 200 U, 48 h): 7.3
- Cell surface expression (staining with directly labeled MAb) (Aspc-1; Aspc-1, without IFN-γ): 3.3
- % change of cell surface expression with IFNγ (BxPC-3; BxPC-3): 142.2%
- % change of cytoplasmic expression with IFNγ (BxPC-3; BxPC-3): 1763.5%
- Cell surface expression (staining with directly labeled MAb) (BxPC-3; BxPC-3 + IFNγ 200 U, 48 h): 6.2
- Cell surface expression (staining with directly labeled MAb) (BxPC-3; BxPC-3, without IFN-γ): 2.6
- % change of cell surface expression with IFNγ (CAG; CAG): −5.4%
- % change of cytoplasmic expression with IFNγ (CAG; CAG): 19.8%
- Cell surface expression (staining with directly labeled MAb) (CAG; CAG + IFNγ 200 U, 48 h): 39.2
- Cell surface expression (staining with directly labeled MAb) (CAG; CAG, without IFN-γ): 41.5
- Cell surface expression (staining with directly labeled MAb) (Capan-1; Capan + IFNγ 200 U, 48 h): 11.1
- % change of cell surface expression with IFNγ (Capan-1; Capan-1): 152.4%
- % change of cytoplasmic expression with IFNγ (Capan-1; Capan-1): 561.2%
- Cell surface expression (staining with directly labeled MAb) (Capan-1; Capan-1, without IFN-γ): 4.4
- % change of cell surface expression with IFNγ (FSCCL; FSCCL): 32.8%
- % change of cytoplasmic expression with IFNγ (FSCCL; FSCCL): 58.5%
- Cell surface expression (staining with directly labeled MAb) (FSCCL; FSCCL + IFNγ 200 U, 48 h): 19.0
- Cell surface expression (staining with directly labeled MAb) (FSCCL; FSCCL, without IFN-γ): 14.3
- % change of cell surface expression with IFNγ (HT29; HT29): 141.1%
- % change of cytoplasmic expression with IFNγ (HT29; HT29): 1766.6%
- Cell surface expression (staining with directly labeled MAb) (HT29; HT29 + IFNγ 200 U, 48 h): 8.3
- Cell surface expression (staining with directly labeled MAb) (HT29; HT29, without IFN-γ): 3.4
- % change of cell surface expression with IFNγ (KMS11; KMS11): 14.0%
- % change of cytoplasmic expression with IFNγ (KMS11; KMS11): −1.9%
- Cell surface expression (staining with directly labeled MAb) (KMS11; KMS11 + IFNγ 200 U, 48 h): 5.1
- Cell surface expression (staining with directly labeled MAb) (KMS11; KMS11, without IFN-γ): 4.4
- % change of cell surface expression with IFNγ (LS174T; LS174T): −11.3%
- % change of cytoplasmic expression with IFNγ (LS174T; LS174T): 112.7%
- Cell surface expression (staining with directly labeled MAb) (LS174T; LS174T + IFNγ 200 U, 48 h): 5.2
- Cell surface expression (staining with directly labeled MAb) (LS174T; LS174T, without IFN-γ): 5.9
- % change of cell surface expression with IFNγ (Lovo; Lovo): 173.7%
- % change of cytoplasmic expression with IFNγ (Lovo; Lovo): 756.0%
- Cell surface expression (staining with directly labeled MAb) (Lovo; Lovo + IFNγ 200 U, 48 h): 9.2
- Cell surface expression (staining with directly labeled MAb) (Lovo; Lovo, without IFN-γ): 3.4
- % change of cell surface expression with IFNγ (Moser; Moser): 16.3%
- % change of cytoplasmic expression with IFNγ (Moser; Moser): 86.1%
- Cell surface expression (staining with directly labeled MAb) (Moser; Moser + IFNγ 200 U, 48 h): 4.8
- Cell surface expression (staining with directly labeled MAb) (Moser; Moser, without IFN-γ): 4.1
- % change of cell surface expression with IFNγ (Panc-1; Panc-1): 9.4%
- % change of cytoplasmic expression with IFNγ (Panc-1; Panc-1): 208.7%
- Cell surface expression (staining with directly labeled MAb) (Panc-1; Panc-1 + IFNγ 200 U, 48 h): 4.9
- Cell surface expression (staining with directly labeled MAb) (Panc-1; Panc-1, without IFN-γ): 4.5
- % change of cell surface expression with IFNγ (RL; RL): 23.8%
- % change of cytoplasmic expression with IFNγ (RL; RL): 3.7%
- Cell surface expression (staining with directly labeled MAb) (RL; RL + IFNγ 200 U, 48 h): 25.0
- Cell surface expression (staining with directly labeled MAb) (RL; RL, without IFN-γ): 20.2
- % change of cell surface expression with IFNγ (TU118; TU118): 167.8%
- % change of cytoplasmic expression with IFNγ (TU118; TU118): 374.6%
- Cell surface expression (staining with directly labeled MAb) (TU118; TU118 + IFNγ 200 U, 48 h): 19.2
- Cell surface expression (staining with directly labeled MAb) (TU118; TU118, without IFN-γ): 7.17
- % change of cell surface expression with IFNγ (U118; U118): 160.9%
- % change of cytoplasmic expression with IFNγ (U118; U118): 428.2%
- Cell surface expression (staining with directly labeled MAb) (U118; U118 + IFNγ 200 U, 48 h): 18.3
- Cell surface expression (staining with directly labeled MAb) (U118; U118, without IFN-γ): 7.0
- % change of cell surface expression with IFNγ (U87; U87): 75.6%
- % change of cytoplasmic expression with IFNγ (U87; U87): 158.8%
- Cell surface expression (staining with directly labeled MAb) (U87; U87 + IFNγ 200 U, 48 h): 9.5
- Cell surface expression (staining with directly labeled MAb) (U87; U87, without IFN-γ): 5.4
- increased killing after IFN-γ exposure (WSU-FSCCL NHL cells): 33%
- cell killing [2]: unable to kill
- peak levels [3]: 10 to 20 µg/mL
- weight loss or other side effects [4]: did not cause any observed weight loss or other significant side effects
